Laboratory results from patent US7964598B2 (The J. David Gladstone Institutes, priority 1995, dated 2011).

Key:
Neuro-2a cells = experiment: Binding of DiI-labeled LDL to Neuro-2a cells; type: cell-based, mouse; conditions: 5 μg/ml of RAP
[1] = tested on: apoE4-expressing Neuro-2a cells; experiment: Neurite outgrowth, apoE4-expressing Neuro-2a cells; type: cell-based, mouse; conditions: in the presence of β-VLDL
Procedure: Cells were grown in DME/F12 containing 10% FBS and G418 (400 μg/ml). On the day the experiment was initiated, the cells were subcultured into 35 mm plates in DME/F12 with 10% FBS. The cells were allowed to adhere to the plastic plates for 2 hr at 37° C., and then the culture medium was changed to N2 medium with or without increasing concentrations of lipoproteins. After 48 hr at 37° C., the media were replaced with the same medium (with or without lipoproteins), and the incubation was continued for an additional 48 hr. […] Neurons were imaged in fluorescence mode with a confocal laser scanning system (MRC-600, BioRad, Hercules, Calif.), and the images were digitized with an Image-1/AT image analysis system (Universal Images, West Chester, Pa.). The neuronal images were coded before characterization, and the following variables were measured: 1) number of neurites (defined as cell surface projections at least one-half the cell diameter) on each neuron; 2) neurite branching (the number of branch points on each neurite); and 3) neurite extension (the length of the longest neurite, measured from the cell body). Typically, in each experiment the neurites of 20 to 40 neurons per plate were measured and the results preserved as the mean±S.E.M. […]

[2] = tested on: apoE4 enhancement of Aβ production; experiment: Aβ production assay, B103-APP cells incubated with apoE4; type: cell-based, rat; conditions: RAP 25 nM, preincubated 1 h
Procedure: Aβ production assay. Stable neuroblastoma B103 cell lines transfected with a wildtype hAPP cDNA construct (B 103-APP) were selected by growing them in Dulbecco's modified Eagle's medium (DMEM) containing 10% fetal calf serum (FBS) and 400 μg/ml G418. A cell line expressing APP at similar levels in mouse brains has been identified by RNase protection assay (RPA) and was used in the studies described below. To determine Aβ production, B103-APP cells were incubated with serum-free minimal essential medium (MEM) containing N2 supplements with or without apoE isoforms for 24 h at 37° C. After incubation, 50 μl of medium was collected and assayed for Aβ levels with an ELISA method. The cells were lysed, and cellular proteins were determined by the Lowry method. AP production was normalized to cellular protein.
Cell Culture. Rat neuroblastoma B103 cells stably expressing human wildtype APP (hAPP695wt) (Xu et al. ((1999) Proc. Natl. Acad. Sci. USA 96:7547-7552; Esposito, et al. (2004) J. Neurochem. 91:1260-1274) were generated in Dr. Lennart Mucke's laboratory at the Gladstone Institute of Neurological Disease and maintained in Dulbecco's modified Eagle's medium (DMEM) (GIBCO, Grand Island, N.Y.) containing 400 μg/ml G418, 10% fetal bovine serum, and 5% horse serum at 37° C. Twenty-four hours after plating into 48-well plates (1×10^5 cells per well), cells were washed twice with serum-free DMEM and cultured for another 24 h in DMEM containing 1% N-2 supplement (GIBCO) to induce differentiation. The cells were treated with either β-VLDL (25 μg/ml cholesterol), recombinant human apoE isoform-enriched β-VLDL (7.5 μg/ml apoE and 25 μg/ml cholesterol), or recombinant human apoE (7.5 μg/ml apoE) in fresh DMEM containing 1% N-2 supplement for an additional 24 h. In some experiments, RAP (25 nM or 1 μM) was added to the cells 1 h before apoE treatment.
Aβ Assay. Aβ secreted into the medium was detected with a sandwich enzyme-linked immunosorbent assay (ELISA), using mAb 266 as a capturing antibody and 3D6 as a detecting antibody, as described. Johnson-Wood et al. ((1997) Proc. Natl. Acad. Sci. USA 94:1550-1555). Aβ was quantified from a standard curve (Aβ42; Bachem, Torrance, Calif.) and normalized by total cellular protein.

With “RAP: receptor-associated protein, 39-kD glycoprotein, LRP antagonist” the “binding of DiI-labeled LDL to the Neuro-2a cells” value (Neuro-2a cells) was “did not block”, the “inhibition of neurite extension seen in the apoE4-expressing cells” value [1] was “blocked the inhibition of neurite extension” and the “apoE4 enhancement of Aβ production” value [2] was “abolished the apoE4-induced enhancement of Aβ production”.
